Test results: PMC5216056 (Nature Communications, 2017)
Where “and” joins values, the source holds several entries; their conditions need not be identical. Equal entries are not always repeated. Where two headings read alike, the source gives them in different places.

What was measured:
Rat recombinant TRPV3 = molecular target: T1, Rat recombinant TRPV3 (Rattus norvegicus, UniProt Q4QYD9); assay: cell-based; type: cell-based; settings: for IC50: vs thymol 100μM, read-out: TRPV3 IC50 for antagonism or desensitization; for EC50: read-out: TRPV3 Potency EC50
T1 construct: expressed in transfected cells; host or cells: HEK293 (TRPV3-HEK-293, gift from HB Bradshaw, Indiana University)
T1 sequence (Q4QYD9 1-791): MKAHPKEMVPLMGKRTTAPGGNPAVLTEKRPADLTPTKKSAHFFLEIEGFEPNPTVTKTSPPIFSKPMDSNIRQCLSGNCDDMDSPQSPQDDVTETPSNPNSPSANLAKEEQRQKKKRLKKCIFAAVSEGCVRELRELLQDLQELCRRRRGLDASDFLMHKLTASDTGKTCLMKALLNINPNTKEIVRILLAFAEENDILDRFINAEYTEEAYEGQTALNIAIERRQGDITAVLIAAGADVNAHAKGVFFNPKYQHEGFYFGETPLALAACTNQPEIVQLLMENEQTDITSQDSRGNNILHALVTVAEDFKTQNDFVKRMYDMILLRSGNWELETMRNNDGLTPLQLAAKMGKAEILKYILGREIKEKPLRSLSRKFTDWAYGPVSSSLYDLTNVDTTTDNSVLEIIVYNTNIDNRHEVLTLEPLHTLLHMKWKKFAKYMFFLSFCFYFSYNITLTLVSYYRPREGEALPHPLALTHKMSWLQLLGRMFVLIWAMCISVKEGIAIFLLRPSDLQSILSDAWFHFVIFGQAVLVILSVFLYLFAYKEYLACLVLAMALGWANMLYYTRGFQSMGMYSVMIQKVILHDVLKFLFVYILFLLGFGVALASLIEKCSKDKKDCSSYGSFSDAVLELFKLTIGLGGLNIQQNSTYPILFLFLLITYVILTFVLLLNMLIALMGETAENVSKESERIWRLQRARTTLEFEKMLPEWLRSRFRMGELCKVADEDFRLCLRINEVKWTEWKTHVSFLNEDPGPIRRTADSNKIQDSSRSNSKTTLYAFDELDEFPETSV

Rat recombinant TRPA1 = molecular target: T2, Rat recombinant TRPA1 (Rattus norvegicus, UniProt Q6RI86); assay: cell-based; type: cell-based; settings: for EC50: read-out: TRPA1 Potency EC50; for IC50: vs AITC 100μM, 5 min pre-incubation, read-out: TRPA1 IC50 for antagonism or desensitization
T2 construct: expressed in transfected cells

[1] = 1 μM
hCB1R = molecular target: T3, hCB1R (Homo sapiens, UniProt P21554); assay: cell-based
T3 construct: host or cells: CHO

hCB2R = hCB2R (Homo sapiens, UniProt P34972); assay: biochemical; type: binding
BZD (central) = type: binding; settings: 10 µM
alpha 1A (h) = molecular target: T4, alpha 1A (h) (Homo sapiens, UniProt P35348); assay: CEREP panel; type: binding; settings: 10 µM
T4 construct: CEREP
T4 sequence (P35348 1-466): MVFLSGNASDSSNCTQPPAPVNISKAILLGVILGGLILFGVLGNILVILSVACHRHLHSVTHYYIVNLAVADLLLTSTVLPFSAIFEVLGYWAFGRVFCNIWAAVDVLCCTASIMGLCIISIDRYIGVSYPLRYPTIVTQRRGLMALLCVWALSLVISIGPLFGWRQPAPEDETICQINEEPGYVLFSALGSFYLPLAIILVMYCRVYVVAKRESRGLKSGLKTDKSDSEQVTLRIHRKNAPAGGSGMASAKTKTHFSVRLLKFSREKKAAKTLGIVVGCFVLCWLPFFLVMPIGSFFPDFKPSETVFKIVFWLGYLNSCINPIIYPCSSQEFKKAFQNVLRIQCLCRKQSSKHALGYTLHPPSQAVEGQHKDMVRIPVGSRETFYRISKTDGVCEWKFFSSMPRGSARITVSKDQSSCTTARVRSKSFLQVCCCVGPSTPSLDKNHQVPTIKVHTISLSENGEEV

beta 1 (h) = molecular target: T5, beta 1 (h) (Homo sapiens, UniProt P08588); assay: biochemical; type: binding; settings: 10 µM
T5 construct: CEREP

Rat recombinant TRPV2 = molecular target: T6, Rat recombinant TRPV2 (Rattus norvegicus, UniProt Q9WUD2); assay: cell-based; type: cell-based; settings: for IC50: vs LPC 3μM, read-out: TRPV2 IC50 for antagonism or desensitization; for EC50: read-out: TRPV2 Potency EC50
T6 construct: expressed in transfected cells; host or cells: HEK293 (plasmid a gift from HB Bradshaw, Indiana University)
T6 sequence (Q9WUD2 1-761): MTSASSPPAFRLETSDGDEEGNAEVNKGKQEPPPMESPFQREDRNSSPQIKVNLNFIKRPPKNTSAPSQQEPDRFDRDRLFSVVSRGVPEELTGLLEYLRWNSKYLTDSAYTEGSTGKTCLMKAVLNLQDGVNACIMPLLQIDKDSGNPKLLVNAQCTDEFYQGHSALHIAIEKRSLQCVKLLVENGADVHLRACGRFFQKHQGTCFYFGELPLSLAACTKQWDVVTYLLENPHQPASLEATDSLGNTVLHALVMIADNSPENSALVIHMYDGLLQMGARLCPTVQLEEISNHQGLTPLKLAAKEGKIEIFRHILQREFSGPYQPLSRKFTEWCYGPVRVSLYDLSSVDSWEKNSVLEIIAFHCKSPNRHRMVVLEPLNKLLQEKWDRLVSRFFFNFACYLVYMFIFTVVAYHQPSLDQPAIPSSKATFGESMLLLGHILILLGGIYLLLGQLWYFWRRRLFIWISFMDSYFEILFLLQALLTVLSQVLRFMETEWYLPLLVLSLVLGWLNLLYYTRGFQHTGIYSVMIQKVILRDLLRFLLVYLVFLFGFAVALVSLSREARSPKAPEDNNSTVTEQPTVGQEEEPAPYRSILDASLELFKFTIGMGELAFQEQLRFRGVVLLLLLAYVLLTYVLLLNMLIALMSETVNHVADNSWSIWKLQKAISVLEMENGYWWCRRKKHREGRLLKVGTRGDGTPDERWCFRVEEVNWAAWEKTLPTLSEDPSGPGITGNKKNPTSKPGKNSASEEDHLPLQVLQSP

mu (MOP) (h) = molecular target: T7, mu (MOP) (h) (Homo sapiens, UniProt P35372); assay: CEREP panel; type: binding; settings: 10 µM
T7 construct: CEREP (contract assay)

kappa (KOP) = molecular target: T8, kappa (KOP) (Rattus norvegicus, UniProt P34975); assay: CEREP panel; type: binding; settings: for % inhibition kappa (KOP): 10 µM
T8 construct: CEREP (contract assay)

AR (h) = assay: CEREP panel; type: binding, human; settings: 10 µM

T2 sequence (Q6RI86 whole entry): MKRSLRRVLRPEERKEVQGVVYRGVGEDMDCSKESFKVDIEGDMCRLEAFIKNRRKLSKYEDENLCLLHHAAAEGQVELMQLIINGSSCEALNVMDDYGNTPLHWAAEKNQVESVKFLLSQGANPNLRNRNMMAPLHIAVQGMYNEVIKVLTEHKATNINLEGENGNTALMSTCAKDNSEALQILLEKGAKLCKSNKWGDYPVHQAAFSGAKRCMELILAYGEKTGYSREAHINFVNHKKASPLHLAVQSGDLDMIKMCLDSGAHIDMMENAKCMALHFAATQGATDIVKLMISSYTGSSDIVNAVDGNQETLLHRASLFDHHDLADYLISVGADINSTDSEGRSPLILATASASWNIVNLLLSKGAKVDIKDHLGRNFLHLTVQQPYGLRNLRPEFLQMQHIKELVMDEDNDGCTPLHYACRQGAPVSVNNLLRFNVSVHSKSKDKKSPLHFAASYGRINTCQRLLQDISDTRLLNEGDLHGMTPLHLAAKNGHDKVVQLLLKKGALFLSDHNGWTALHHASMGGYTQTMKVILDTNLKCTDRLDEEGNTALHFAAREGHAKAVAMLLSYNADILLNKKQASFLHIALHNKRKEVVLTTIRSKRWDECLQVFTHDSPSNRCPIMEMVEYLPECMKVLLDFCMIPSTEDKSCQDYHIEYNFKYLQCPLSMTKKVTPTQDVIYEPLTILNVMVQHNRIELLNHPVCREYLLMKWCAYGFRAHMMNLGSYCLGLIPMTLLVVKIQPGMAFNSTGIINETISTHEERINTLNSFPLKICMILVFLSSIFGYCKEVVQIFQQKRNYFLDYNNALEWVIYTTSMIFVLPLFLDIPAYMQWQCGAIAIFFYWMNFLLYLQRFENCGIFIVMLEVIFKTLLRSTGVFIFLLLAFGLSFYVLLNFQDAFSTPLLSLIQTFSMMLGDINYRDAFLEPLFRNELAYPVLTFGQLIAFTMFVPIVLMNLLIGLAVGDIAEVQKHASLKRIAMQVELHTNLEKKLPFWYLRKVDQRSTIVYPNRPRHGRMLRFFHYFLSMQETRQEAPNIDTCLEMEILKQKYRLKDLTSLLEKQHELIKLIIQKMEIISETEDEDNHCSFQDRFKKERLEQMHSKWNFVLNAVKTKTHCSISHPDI
T3 sequence (P21554 whole entry): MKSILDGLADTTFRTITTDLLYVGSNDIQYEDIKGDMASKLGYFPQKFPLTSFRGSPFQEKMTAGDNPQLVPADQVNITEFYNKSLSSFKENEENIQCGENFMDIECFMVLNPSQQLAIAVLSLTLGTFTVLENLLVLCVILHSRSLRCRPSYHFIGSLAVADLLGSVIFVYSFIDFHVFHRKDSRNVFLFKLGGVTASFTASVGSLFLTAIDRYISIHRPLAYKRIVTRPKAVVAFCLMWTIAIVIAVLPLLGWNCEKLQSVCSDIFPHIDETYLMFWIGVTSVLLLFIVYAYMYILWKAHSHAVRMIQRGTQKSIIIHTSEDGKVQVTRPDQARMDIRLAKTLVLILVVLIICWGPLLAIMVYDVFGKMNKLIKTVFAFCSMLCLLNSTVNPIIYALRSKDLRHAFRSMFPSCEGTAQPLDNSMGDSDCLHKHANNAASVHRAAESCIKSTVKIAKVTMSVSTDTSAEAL
T7 sequence (P35372 whole entry): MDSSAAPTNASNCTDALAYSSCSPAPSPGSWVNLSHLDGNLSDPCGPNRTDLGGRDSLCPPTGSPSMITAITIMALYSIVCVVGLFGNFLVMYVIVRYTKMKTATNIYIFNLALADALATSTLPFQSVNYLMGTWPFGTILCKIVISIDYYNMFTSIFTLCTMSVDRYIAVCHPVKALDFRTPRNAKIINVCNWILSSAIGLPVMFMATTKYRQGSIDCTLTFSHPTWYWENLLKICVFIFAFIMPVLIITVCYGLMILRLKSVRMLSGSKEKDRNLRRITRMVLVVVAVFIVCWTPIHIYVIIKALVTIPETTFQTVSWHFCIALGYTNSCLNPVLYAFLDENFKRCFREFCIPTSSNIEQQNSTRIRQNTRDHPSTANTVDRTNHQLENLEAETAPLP
T5 sequence (P08588 whole entry): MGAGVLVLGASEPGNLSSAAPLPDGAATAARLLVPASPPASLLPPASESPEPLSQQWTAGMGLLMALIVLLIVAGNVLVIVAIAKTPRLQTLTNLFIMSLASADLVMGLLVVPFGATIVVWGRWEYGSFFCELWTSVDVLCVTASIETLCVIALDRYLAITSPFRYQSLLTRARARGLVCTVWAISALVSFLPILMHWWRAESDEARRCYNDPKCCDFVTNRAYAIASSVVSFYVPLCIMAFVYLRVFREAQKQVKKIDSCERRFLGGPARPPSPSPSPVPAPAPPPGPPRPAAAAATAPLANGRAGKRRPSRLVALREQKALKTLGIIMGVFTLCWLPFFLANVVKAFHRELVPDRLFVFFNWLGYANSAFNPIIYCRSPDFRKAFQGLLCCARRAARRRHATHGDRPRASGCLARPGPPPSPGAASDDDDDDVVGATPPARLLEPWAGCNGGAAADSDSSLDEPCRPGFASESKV
T8 sequence (P34975 whole entry): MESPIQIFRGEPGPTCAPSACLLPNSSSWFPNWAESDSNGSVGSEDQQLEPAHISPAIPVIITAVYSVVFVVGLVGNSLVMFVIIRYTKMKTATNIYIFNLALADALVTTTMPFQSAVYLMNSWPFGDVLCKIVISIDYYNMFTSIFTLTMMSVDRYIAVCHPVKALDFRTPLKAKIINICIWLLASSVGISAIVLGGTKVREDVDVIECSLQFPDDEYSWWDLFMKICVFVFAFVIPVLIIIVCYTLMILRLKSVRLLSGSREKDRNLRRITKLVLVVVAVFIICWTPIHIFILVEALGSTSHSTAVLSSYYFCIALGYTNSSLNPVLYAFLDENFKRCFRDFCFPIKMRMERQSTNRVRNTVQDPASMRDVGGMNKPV
Chain of hCB2R (P34972 whole entry): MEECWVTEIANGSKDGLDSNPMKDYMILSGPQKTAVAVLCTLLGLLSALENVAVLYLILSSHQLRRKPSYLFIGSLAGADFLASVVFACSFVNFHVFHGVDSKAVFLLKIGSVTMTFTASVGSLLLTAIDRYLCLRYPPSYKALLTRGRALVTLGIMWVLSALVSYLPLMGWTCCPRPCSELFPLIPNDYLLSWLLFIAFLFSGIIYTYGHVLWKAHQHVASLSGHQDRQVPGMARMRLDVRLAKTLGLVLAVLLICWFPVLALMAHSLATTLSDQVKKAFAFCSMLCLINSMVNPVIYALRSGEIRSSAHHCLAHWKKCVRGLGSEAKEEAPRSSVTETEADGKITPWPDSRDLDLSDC

CCCC(C)(C)c1ccc2c(c1)OC(C)(C)[C@@H]1CC=C(C)C[C@@H]21 [JWH133]
TRPV3 Efficacy (% ionomycin 4μM) (Rat recombinant TRPV3): < 10%
IC50 (Rat recombinant TRPV3): 80.6 µM
TRPA1 Efficacy (%AITC 100μM) (Rat recombinant TRPA1): 76.8% and 77 ± 4% and 76.8±3.8%
EC50 (Rat recombinant TRPA1): 8.5 ± 2.3 µM
IC50 (Rat recombinant TRPA1): 20 µM
CL hepatocytes human [1]: 5.6 µL/min/mio cells
Emax ± SEM cAMP hCB1R (hCB1R): 37 ± 6
pEC50 ± SEM cAMP hCB1R (hCB1R): < 5
CB2R Selectivity (binding, human) (hCB2R): 153 fold
pKi ± SEM hCB2R (hCB2R): 7.18 ± 0.34
% inhibition BZD (central) (BZD (central)): -22%
% inhibition alpha 1A (h) (alpha 1A (h)): -5%
% inhibition beta 1 (h) (beta 1 (h)): -7%
TRPV2 Efficacy (% ionomycin 4μM) (Rat recombinant TRPV2): < 10%
IC50 (Rat recombinant TRPV2): > 100 µM
% inhibition mu (MOP) (h) (mu (MOP) (h)): 7%

CCCn1c(C)c(C(=O)c2cccc3ccccc23)c2ccccc21 [JWH015]
% inhibition kappa (KOP) (kappa (KOP)): 53%
CL hepatocytes human [1]: 16 µL/min/mio cells
% inhibition AR (h) (AR (h)): 0%
% inhibition BZD (central) (BZD (central)): -57%
% inhibition alpha 1A (h) (alpha 1A (h)): 16%
% inhibition beta 1 (h) (beta 1 (h)): 7%
% inhibition mu (MOP) (h) (mu (MOP) (h)): 7%

CCCCCCC(C)(C)c1ccc([C@@H]2C[C@H](O)CC[C@H]2CCCO)c(O)c1 [CP55940]
inhibition at 10 µM (kappa (KOP)): 74%
% inhibition AR (h) (AR (h)): -28%
% inhibition BZD (central) (BZD (central)): -9%
inhibition at 10 µM (alpha 1A (h); read-out: % inhibition alpha 1A (h)): 57%
inhibition at 10 µM (beta 1 (h); read-out: % inhibition beta 1 (h)): 14%
inhibition at 10 µM (mu (MOP) (h); read-out: % inhibition mu (MOP) (h)): 57%

CN1CCCC[C@@H]1Cn1cc(C(=O)c2cc([N+](=O)[O-])ccc2I)c2ccccc21 [(R)-AM1241]
TRPV3 Efficacy (% ionomycin 4μM) (Rat recombinant TRPV3): 12.9%
EC50 (Rat recombinant TRPV3): 10 µM
IC50 (Rat recombinant TRPV3): > 50 µM
TRPA1 Efficacy (%AITC 100μM) (Rat recombinant TRPA1): 19.8%
EC50 (Rat recombinant TRPA1): 19.5 µM
IC50 (Rat recombinant TRPA1): > 50 µM
Emax ± SEM cAMP hCB1R (hCB1R): 54 ± 7
pEC50 ± SEM cAMP hCB1R (hCB1R): 6.17 ± 0.12
CB2R Selectivity (binding, human) (hCB2R; 10^(pKi CB2R-pKi CB1R)): 38 fold
pKi ± SEM hCB2R (hCB2R; CHO membranes, Leiden, HU210 and SR144528 from Roche): 8.44 ± 0.25
TRPV2 Efficacy (% ionomycin 4μM) (Rat recombinant TRPV2): 14.5%
EC50 (Rat recombinant TRPV2): 12 µM
IC50 (Rat recombinant TRPV2): 35.5 µM

CCCCC/C=C\C/C=C\C/C=C\C/C=C\CCCC(=O)OC(CO)CO [2-AG, 2-arachidonoyl glycerol]
Emax (hCB1R; read-out: Emax ± SEM cAMP hCB1R): < 70%
Ki (hCB2R; CHO membranes, Leiden, HU210 and SR144528 from Roche, read-out: pKi ± SEM hCB2R (converted)): ~0.1 µM and 0.115 µM

Cc1c(C(=O)c2cccc3ccccc23)c2cccc3c2n1[C@H](CN1CCOCC1)CO3 [WIN55212-2]
% inhibition kappa (KOP) (kappa (KOP)): 79%
TRPV3 Efficacy (% ionomycin 4μM) (Rat recombinant TRPV3): 22.9%
EC50 (Rat recombinant TRPV3): 6.5 µM
IC50 (Rat recombinant TRPV3): > 100 µM
TRPA1 Efficacy (%AITC 100μM) (Rat recombinant TRPA1): 72.3% and 72 ± 1%
EC50 (Rat recombinant TRPA1): 2.3 µM
IC50 (Rat recombinant TRPA1): 6.4 ± 0.6 µM
CL hepatocytes human [1]: 42 µL/min/mio cells
% inhibition AR (h) (AR (h)): 8%
% inhibition BZD (central) (BZD (central)): 4%
% inhibition alpha 1A (h) (alpha 1A (h)): 15%
% inhibition beta 1 (h) (beta 1 (h)): 6%
TRPV2 Efficacy (% ionomycin 4μM) (Rat recombinant TRPV2): 17.0%
EC50 (Rat recombinant TRPV2): 14.8 µM
IC50 (Rat recombinant TRPV2): 62 µM
% inhibition mu (MOP) (h) (mu (MOP) (h)): 21%
